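Cells were grown in 96-well plates and exposed to each compound for 48 hours at five concentrations; endpoints were interpolated linearly between bracketing concentrations, or set to the highest concentration if not reached. Here, GI50 denotes the concentration required for 50% inhibition of growth. Definition used: TGI = concentration required for complete inhibition of growth.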
Tests used:
Assay in all cases: inhibition of tumour cell growth, NCI panel, 48 h
A498 renal = system: A498 renal
786-0 renal = system: 786-0 renal
HOP-92 NSCLC = system: HOP-92 NSCLC
CCRF-CEM leukemia = system: CCRF-CEM leukemia
RXF 393 renal = system: RXF 393 renal
A549 NSCLC = system: A549 NSCLC
SF-295 CNS = system: SF-295 CNS
CAKI-1 renal = system: CAKI-1 renal
MCF7 breast = system: MCF7 breast
HS 578T breast = system: HS 578T breast

Row | SMILES | TGI (A498 renal) [µM] | TGI (786-0 renal) [µM] | TGI (HOP-92 NSCLC) [µM] | TGI (CCRF-CEM leukemia) [µM] | TGI (RXF 393 renal) [µM] | TGI (A549 NSCLC) [µM] | TGI (SF-295 CNS) [µM] | TGI (CAKI-1 renal) [µM] | GI50 (A498 renal) [µM] | GI50 (786-0 renal) [µM] | GI50 (HOP-92 NSCLC) [µM] | GI50 (CCRF-CEM leukemia) [µM] | GI50 (MCF7 breast) [µM] | TGI (MCF7 breast) [µM] | GI50 (A549 NSCLC) [µM] | GI50 (SF-295 CNS) [µM] | GI50 (HS 578T breast) [µM] | TGI (HS 578T breast) [µM] | GI50 (CAKI-1 renal) [µM] | GI50 (RXF 393 renal) [µM]
1 | N#CC(C#N)=C1NC(=O)CC(=O)N1 | > 100 | > 100 | > 100 | > 100 | > 100 | > 100 | > 100 | > 100 |  |  |  |  |  |  |  |  |  |  |  | 
2 | COc1cc(C(=O)C/C(CCC(=O)Nc2ccccc2[N+](=O)[O-])=N\NC(N)=O)ccc1O | > 100 | > 100 | > 100 | > 100 | > 100 | > 100 | > 100 | > 100 |  |  |  |  |  |  |  |  |  |  |  | 
3 | C#C[C@]1(O)CCCC2=CC(=O)CC[C@@]21C |  | > 100 | > 100 | > 100 | > 100 | > 100 | > 100 |  |  |  |  |  |  |  |  |  |  |  |  | 
4 | CC#CCC1CCC(OCC)=CC1=O (stereo not drawn) |  | > 100 | > 100 | > 100 | > 100 | > 100 | > 100 | > 100 |  |  |  |  |  |  |  |  |  |  |  | 
5 | O=C1OCC2=C1C(c1ccccc1)c1cc3c(cc1N2)OCO3 (stereo not drawn) | 0.498 | > 69.3 | 7.63 | > 100 |  | > 56.4 |  | > 62.9 | 0.0159 | 0.055 | 0.141 | 0.039 | 0.0316 | 17.3 | 0.0375 | 0.0169 | 0.0469 | > 84.4 | 0.439 | 
6 | CC/C=C\C/C=C\C/C=C\CCCCCCCC(=O)OCC(O)CO (stereo not drawn) | > 100 | > 100 | > 100 | > 72.9 | > 100 | > 100 | > 100 | 59.8 |  |  |  |  |  |  |  |  |  |  |  | 
7 | N#CC(=C1C=CC(=NO)C=C1)c1ccc(Cl)cc1 | > 100 | 5.69 | 44.8 | 9.01 | 36.5 | 49.7 | 48 | 29 |  |  |  |  |  |  |  |  |  |  |  | 
8 | C1CCC([PH+](C2CCCCC2)C2CCCCC2[PH+](C2CCCCC2)C2CCCCC2)CC1.[Au].[CH-]1CCCCC1CC1CCCC[N-]1 (stereo not drawn) | 0.673 | 2.02 | 0.714 |  | 1.12 | 3.03 | 1.28 | 2.29 | 0.145 | 0.518 | 0.212 |  |  |  | 0.241 | 0.305 | 0.276 | 1.69 | 0.791 | 0.277
9 | C/C(=C\c1ccc2ccccc2c1)[N+](=O)[O-] | 20.9 | 3.83 | 5.06 | 5.65 | 3.06 | 19.3 | 27.6 | 4.05 | 8.63 | 1.99 | 1.96 | 1.89 |  |  | 4.58 | 13.1 | 2.54 | 9.26 | 1.92 | 1.65
10 | CO[C@H]1CC(O[C@@H]2/C(C)=C/C[C@@H]3C[C@@H](C[C@]4(C=C[C@H](C)[C@@H](C5CCCCC5)O4)O3)OC(=O)[C@@H]3C=C(C)[C@@H](O)[C@H]4OC/C(=C\C=C\[C@@H]2C)[C@]43O)O[C@@H](C)C1O[C@H]1C[C@H](OC)[C@@H](O)[C@H](C)O1 (stereo partly drawn) |  | 3.14 | 1.89 | 4.4 | 2.46 |  | 2.83 | 2.73 |  | 1.54 | 0.301 | 1.88 | 1.82 | 5.84 |  | 1.33 | 2.45 | > 100 | 1.22 | 1.18
11 | O=C1c2cccnc2C(=O)c2c1c(C(=O)NCCCN1CCCCC1)c1ccccn21 | 3.23 | 8.06 | 4.9 | > 100 | 3.4 | 3.8 | 8.45 |  | 1.54 | 1.18 | 2.33 | 3.26 |  |  | 1.25 | 0.845 | 2.59 | 9.75 |  | 1.28
12 | N#CC1(C(N)=O)C(c2ccc(Cl)cc2)CC(=O)CC1c1ccc(Cl)cc1 (stereo not drawn) | 27.8 | 30.8 | 32.1 | 63.5 |  | 39.8 | 33.4 | 55.9 | 14.7 | 17.1 | 16.4 | 21.5 | 17.4 | 31.7 | 18.1 | 15 | 23.3 | 61.6 | 20.4 | 
13 | O=C1CC(c2c[nH]c3ccccc23)C(=O)N1 (stereo not drawn) | > 100 | > 100 |  | > 100 | > 100 | > 100 | > 100 | > 100 |  |  |  |  |  |  |  |  |  |  |  | 
